For 3 compounds, Heat resistance and Light fastness results are on record in patent US20050208394A1, “Dye-containing curable composition, color filter and method of producing the color filter” (FUJI PHOTO FILM CO., LTD., priority 2004, published 2005).

Series [1] is described as follows: Heat resistance: change in chromaticity ΔEab* of the coated glass substrate after hot plate heating. The class given is physicochemical. To be noted: 200° C. for one hour. On the procedure:
The glass substrate coated with the dye resist solution was placed on a hot plate such that its surface was in contact with the hot plate and heated at 200° C. for one hour to measure a change in chromaticity, namely ΔEab* value, before and after the substrate was placed, by using a chromaticity meter (trade name: MCPD-1000, manufactured by Otsuka Electronics Co., Ltd.). The obtained ΔEab* value was adopted as an index showing the degree of […] and evaluated based on the following criteria. The smaller the ΔEab* value is, the higher the heat resistance is.
• A: ΔEab* was 5 or less. • B: ΔEab* exceeded 5 and was less than 10. • C: ΔEab* was 10 or more. —Light Fastness—

Series [2] can be described thus: Light fastness: change in chromaticity ΔEab* of the coated glass substrate after xenon lamp irradiation. The class given is physicochemical. To be noted: xenon lamp 50,000 Lux for 10 hours. On the procedure: The glass substrate coated with the dye resist solution was irradiated with 50,000 Lux light from a xenon lamp for 10 hours (corresponding to 500,000 Lux·h) and then, a change in chromaticity, namely ΔEab* value, before and after the irradiation was measured. The obtained ΔEab* value was adopted as an index showing the degree of […] and evaluated based on the following criteria. The smaller the ΔEab* value is, the higher the […] is.
• A: ΔEab* was 3 or less. • B: ΔEab* exceeded 3 and was less than 10. • C: ΔEab* was 10 or more. —Pattern Shape—
A cyan pattern image was obtained by carrying out coating, prebaking, irradiation, developing, rinsing and drying in the same manner as in Example 1 and then heated at 180° C. for 5 minutes. Also, the heat resistance, light fastness and pattern shape were evaluated in the same manner as in Example 1 and also the solubility of the dye (exemplified compound (3)) was evaluated visually according to the same criteria as in Example 1 from the degree of solubility when the dye was dissolved in the above “1) Preparation of a dye resist solution (positive type dye-containing curable composition)”.

Where [3] appears, read: negative type dye resist film on glass.
Setting [4] is: positive type dye resist film on glass.

As for “Tetra-β-(3,5-dimethylpyrazolyl)zinc phthalocyanine [Exemplified compound (4)]”, the Heat resistance entry in series [1] (setting [3]) and in series [1] (setting [4]) was “A (ΔEab* was 5 or less.)” each time. The Light fastness result in series [2] (setting [3]) and in series [2] (setting [4]) was “A (ΔEab* was 3 or less.)” each time.

Take `Cc1cc(C)n(-c2ccc3c(c2)-c2nc-3nc3[n-]c(nc4nc(nc5[n-]c(n2)c2ccc(-n6nc(C)cc6C)cc52)-c2cc(-n5nc(C)cc5C)ccc2-4)c2ccc(-n4nc(C)cc4C)cc32)n1.[Ni+2]` [Exemplified compound (16)]: the Heat resistance result in series [1] (setting [4]) is on record as “A (ΔEab* was 5 or less.)”. Further, the Light fastness entry in series [2] (setting [4]) is “A (ΔEab* was 3 or less.)”.

As for “Tetra-α-(3,5-dimethylpyrazolyl)zinc phthalocyanine [Exemplified compound (3)]”, the Heat resistance result in series [1] (setting [3]) and in series [1] (setting [4]) was “A (ΔEab* was 5 or less.)” in each case. Also, the Light fastness result in series [2] (setting [3]) and in series [2] (setting [4]) was “A (ΔEab* was 3 or less.)” in each case.
